Test results reported in ChEMBL document CHEMBL4619828, “Discovery of Potent and Orally Bioavailable Small Molecule Antagonists of Toll-like Receptors 7/8/9 (TLR7/8/9)” (ACS Med Chem Lett, 2020).

Assays:
Toll-like receptor 7 [1] = target: T1, Toll-like receptor 7 (Mus musculus, UniProt P58681); assay: In vivo antagonist activity at TLR7 in po dosed C57BL/6 mouse assessed as reduction of gardiquimod-induced IL-6 production pretreated for 30 mins followed by gardiquimod-stimulation and measured after 120 mins by ELISA
T1 sequence (P58681 whole entry): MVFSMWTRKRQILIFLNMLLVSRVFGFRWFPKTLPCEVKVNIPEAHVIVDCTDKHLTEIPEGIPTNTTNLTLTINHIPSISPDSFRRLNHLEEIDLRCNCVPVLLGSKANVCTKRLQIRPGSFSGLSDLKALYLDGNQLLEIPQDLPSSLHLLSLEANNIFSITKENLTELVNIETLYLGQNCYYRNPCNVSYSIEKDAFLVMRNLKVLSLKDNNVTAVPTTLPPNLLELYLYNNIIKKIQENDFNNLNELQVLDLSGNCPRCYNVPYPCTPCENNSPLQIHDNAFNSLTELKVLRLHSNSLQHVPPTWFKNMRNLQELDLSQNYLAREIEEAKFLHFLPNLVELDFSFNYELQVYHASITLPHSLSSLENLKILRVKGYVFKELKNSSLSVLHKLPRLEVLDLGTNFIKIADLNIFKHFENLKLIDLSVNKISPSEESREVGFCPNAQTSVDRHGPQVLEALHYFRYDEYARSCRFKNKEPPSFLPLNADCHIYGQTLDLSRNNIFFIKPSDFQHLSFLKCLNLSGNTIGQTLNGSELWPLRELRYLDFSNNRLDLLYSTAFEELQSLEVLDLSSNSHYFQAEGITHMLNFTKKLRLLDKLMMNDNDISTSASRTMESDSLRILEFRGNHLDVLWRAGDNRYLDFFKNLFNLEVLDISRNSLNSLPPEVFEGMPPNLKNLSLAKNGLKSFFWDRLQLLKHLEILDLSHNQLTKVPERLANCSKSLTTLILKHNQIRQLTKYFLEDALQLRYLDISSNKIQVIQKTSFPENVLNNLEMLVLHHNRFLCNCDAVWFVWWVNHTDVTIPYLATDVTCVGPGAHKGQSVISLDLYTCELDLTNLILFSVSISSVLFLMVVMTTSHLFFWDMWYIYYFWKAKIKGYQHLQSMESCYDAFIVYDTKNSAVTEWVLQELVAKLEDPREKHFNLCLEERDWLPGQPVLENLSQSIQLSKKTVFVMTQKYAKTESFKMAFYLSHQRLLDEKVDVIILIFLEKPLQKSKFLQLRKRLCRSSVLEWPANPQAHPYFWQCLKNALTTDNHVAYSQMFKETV

Toll-like receptor 4 = Toll-like receptor 4 (Homo sapiens, UniProt O00206); assay: Antagonist activity at human TLR4 overexpressed in HEK-Blue cells assessed as inhibition of […] induced NFkappaB and AP-1 activation preincubated for 30 mins followed by […] stimulation measured after 22 hrs by quanti-blue SEAP assay; assay type: cell-based
Toll-like receptor 9 = target: T2, Toll-like receptor 9 (Mus musculus, UniProt Q9EQU3); assay: Antagonist activity at TLR9 in mouse whole blood cells assessed as inhibition of ODN-2216 induced IL-6 production by ELISA; assay type: cell-based
T2 sequence (Q9EQU3 whole entry): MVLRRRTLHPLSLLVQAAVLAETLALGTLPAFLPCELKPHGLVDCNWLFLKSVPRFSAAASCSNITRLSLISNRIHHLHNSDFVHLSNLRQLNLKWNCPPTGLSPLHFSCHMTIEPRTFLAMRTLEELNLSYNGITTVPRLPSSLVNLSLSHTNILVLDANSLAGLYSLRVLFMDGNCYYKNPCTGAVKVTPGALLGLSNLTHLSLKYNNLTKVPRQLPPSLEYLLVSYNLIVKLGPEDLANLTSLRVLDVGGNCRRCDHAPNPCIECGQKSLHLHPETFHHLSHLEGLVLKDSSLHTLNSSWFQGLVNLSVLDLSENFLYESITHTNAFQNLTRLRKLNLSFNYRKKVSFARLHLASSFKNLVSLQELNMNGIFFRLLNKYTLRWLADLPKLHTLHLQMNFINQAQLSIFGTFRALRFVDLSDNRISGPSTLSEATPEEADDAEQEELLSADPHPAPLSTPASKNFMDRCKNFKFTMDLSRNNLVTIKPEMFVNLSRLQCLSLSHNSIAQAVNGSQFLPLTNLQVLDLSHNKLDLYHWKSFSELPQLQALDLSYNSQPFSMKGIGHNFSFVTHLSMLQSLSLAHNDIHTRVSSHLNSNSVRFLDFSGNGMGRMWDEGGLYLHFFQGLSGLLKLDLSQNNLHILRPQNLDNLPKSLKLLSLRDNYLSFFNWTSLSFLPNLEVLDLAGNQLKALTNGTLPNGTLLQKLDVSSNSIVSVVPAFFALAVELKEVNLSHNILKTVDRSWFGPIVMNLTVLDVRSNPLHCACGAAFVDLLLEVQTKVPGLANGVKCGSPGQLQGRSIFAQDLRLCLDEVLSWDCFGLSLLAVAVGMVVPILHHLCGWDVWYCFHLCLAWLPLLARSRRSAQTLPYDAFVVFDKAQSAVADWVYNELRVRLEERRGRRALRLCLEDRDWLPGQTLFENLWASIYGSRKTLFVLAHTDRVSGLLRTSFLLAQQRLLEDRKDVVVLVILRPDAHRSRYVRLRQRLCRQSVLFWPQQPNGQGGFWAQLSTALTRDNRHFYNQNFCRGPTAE

Toll-like receptor 7 [2] = target: T1, Toll-like receptor 7; assay: Antagonist activity at TLR7 in mouse whole blood cells assessed as inhibition of gardiquimod induced IL-6 production by ELISA; assay type: cell-based
[3] = Tmax in mouse at 15 mg/kg, po; assay type: ADME, organism-based; settings: in vivo
[4] = Oral bioavailability in mouse at 15 mg/kg; assay type: ADME, organism-based; settings: in vivo

Chain of Toll-like receptor 4 (O00206 whole entry): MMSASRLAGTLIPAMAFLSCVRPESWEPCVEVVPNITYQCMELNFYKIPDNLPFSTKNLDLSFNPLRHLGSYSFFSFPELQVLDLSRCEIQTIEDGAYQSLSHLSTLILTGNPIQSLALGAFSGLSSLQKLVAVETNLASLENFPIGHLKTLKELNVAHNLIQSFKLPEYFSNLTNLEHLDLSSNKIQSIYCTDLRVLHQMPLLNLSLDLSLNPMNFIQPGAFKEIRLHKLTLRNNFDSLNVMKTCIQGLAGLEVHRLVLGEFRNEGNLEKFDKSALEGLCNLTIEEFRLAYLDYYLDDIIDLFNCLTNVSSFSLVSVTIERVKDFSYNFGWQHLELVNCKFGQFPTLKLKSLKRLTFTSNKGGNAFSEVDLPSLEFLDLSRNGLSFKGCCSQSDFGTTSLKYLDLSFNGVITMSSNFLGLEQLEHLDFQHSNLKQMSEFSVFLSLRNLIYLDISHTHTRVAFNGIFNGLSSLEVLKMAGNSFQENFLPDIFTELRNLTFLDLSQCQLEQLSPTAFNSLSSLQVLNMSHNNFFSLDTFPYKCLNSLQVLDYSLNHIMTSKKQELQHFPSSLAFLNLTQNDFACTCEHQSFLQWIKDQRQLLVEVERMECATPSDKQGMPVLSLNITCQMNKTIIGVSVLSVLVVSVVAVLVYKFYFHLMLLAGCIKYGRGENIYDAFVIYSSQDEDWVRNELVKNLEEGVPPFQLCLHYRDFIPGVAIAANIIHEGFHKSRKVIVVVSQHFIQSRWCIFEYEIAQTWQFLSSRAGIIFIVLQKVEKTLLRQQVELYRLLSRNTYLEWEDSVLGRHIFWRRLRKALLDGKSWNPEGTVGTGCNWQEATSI

EC50 (Toll-like receptor 7 [1]): 0.0024 µM
IC50 (Toll-like receptor 4): 15.1 µM
IC50 (Toll-like receptor 9): 0.51 µM
IC50 (Toll-like receptor 7 [2]): 0.043 µM
Tmax [3]: 30 min
bioavailability [4]: 62%
SMILES: CNCCN1CCC(c2ccc3[nH]c(-c4ccc(OC)c(OC)c4)c(C(C)C)c3c2)CC1
